According to ChEMBL document CHEMBL1141398, “Metastin (KiSS-1) mimetics identified from peptide structure-activity relationship-derived pharmacophores and directed small molecule database screening” (J Med Chem, 2007):
Calls of active or inactive are those of the source. The rule behind the calls is not given here.

Molecular target: KiSS-1 receptor (Homo sapiens, UniProt Q969F8)
Experiment: Activity at metastin receptor expressed in HEK293 cells by measuring calcium release at 100 uM
Type: functional, cell-based

KiSS-1 receptor, sequence (Q969F8 whole entry): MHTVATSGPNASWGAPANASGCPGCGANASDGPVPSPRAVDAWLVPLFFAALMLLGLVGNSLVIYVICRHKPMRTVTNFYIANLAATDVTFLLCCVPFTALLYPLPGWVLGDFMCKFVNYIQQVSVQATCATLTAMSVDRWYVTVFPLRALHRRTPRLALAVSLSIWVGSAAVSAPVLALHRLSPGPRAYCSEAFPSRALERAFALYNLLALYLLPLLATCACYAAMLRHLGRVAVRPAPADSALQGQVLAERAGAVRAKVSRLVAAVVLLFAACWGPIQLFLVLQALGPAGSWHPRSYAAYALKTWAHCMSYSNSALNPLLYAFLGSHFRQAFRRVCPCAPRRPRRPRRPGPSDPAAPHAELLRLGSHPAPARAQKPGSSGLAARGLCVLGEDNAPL

Activity: Active
SMILES: CC(C)(C)CC(C)(C)c1ccc(OCCOCC[N+](C)(C)Cc2ccccc2)cc1 [BENZETHONIUM CHLORIDE]
